The assay deals with left atrial muscle. Description: Test Method 1: enhancement of contracting force of left atrial muscle extirpated from a guinea pig (electrically stimulated at 1 Hz). It counts as cell-based. As to conditions: Krebs-Henseleit solution 32° C.; for EC20: read-out: EC20 (molar concentration for enhancing the left atrial muscle contracting force to the level of 20%); for EC50: read-out: EC50 (molar concentration for enhancing the left atrial muscle contracting force to the level of 50%); for EC100: read-out: EC100 (molar concentration for enhancing the left atrial muscle contracting force to the level of 100%). The method, then: The drug according to the present invention was evaluated with reference to the physiological activities by means of a method using an atrial muscle extirpated from a guinea pig.
Male guinea pigs having a body weight of 300-500 g were made swooned by striking his head and were bleeded to death. The heart was extirpated and the right and left atrial muscles were cut off. The tops of each atrial muscle were fixed with cerrefines. The muscle was suspended into an organ-bath in which a Krebs-Henseleit solution (at 32° C.) was filled, and a 95% O2 -5% CO2 gas was flown through the bath. The left atrial muscle was stimulated electrically at a frequency of 1 Hz to stabilize the contracting force of the left atrial muscle. Then, the compounds according to the present invention represented by the general formulae were added to the organ-bath. As for the right atrial muscle, after the pulsation was stabilized, the compounds according to the present invention were added in the organ-bath in the same manner as described above.
The compounds according to the present invention represented by the aforementioned general formulae enhanced the left atrial muscle contracting force dependent on their concentrations. The drug concentrations for enhancing the left atrial muscle contracting force to the levels of 20%, 50% and 100%, respectively are listed in Table 2. EC20, EC50 and EC100 indicate the molar concentration for enhancing the left atrial muscle contracting force to the levels of 20%, 50% and 100%, respectively. The enhancing rates of the pulsation of the right atrial muscle are also listed within parentheses. The minus values in parentheses indicate that the pulsation of the right atrial muscle is decreased.
As a control drug, theophylline ([…].

Like-named read-outs stand apart in the source and are kept apart here. Where only a bound is given, the exact number is not on record here.

As for `Cc1cc(Cl)cc2c(=O)cc[nH]c12` [Compound 71, 6-chloro-8-methyl-4(1H)-quinolone], where the note is “Cavia porcellus”, the EC20 was determined as 12.3 µM and the EC50 was found to be 54.3 µM.
Consider `CCOc1cc2[nH]ccc(=O)c2cc1OCC` [Compound 10, 6,7-diethoxy-4(1H)-quinolone], for which, where the note is “Cavia porcellus”, the EC20 amounted to 1.88 µM, the EC50 is 19.3 µM and the EC100 amounted to 116 µM.
As for `CCOc1cc2c(cc1OC)c(=O)ccn2CC(C)C` [Compound 69, 1-i-butyl-7-ethoxy-6-methoxy-4(1H)-quinolone], where the note is “Cavia porcellus”, the EC20 turned out to be 4.32 µM and the EC50 worked out at 462 µM.
`C=CCOc1cc2[nH]ccc(=O)c2cc1OC` [Compound 53, 7-allyloxy-6-methoxy-4(1H)-quinolone]: where the note is “Cavia porcellus”, the EC20 is under 100 µM, the EC50 was determined as 117 µM and the EC100 turned out to be 240 µM.
On to `COc1cc2[nH]cc(C(=O)N3CCC(c4ccccc4)CC3)c(=O)c2cc1OC` [Compound 105, 6,7-dimethoxy-3-(4-phenylpiperidinyl)carbonyl-4(1H)-quinolone], for which, under “Cavia porcellus”, the EC20 was under 100 µM and the EC50 is 221 µM.
For `COc1cc(SC)c2[nH]ccc(=O)c2c1` [Compound 30, 6-methoxy-8-methylsufenyl-4(1H)-quinolone], under “Cavia porcellus”, the EC20 is 6.92 µM, the EC50 was 78.5 µM and the EC100 is 881 µM.
The matching figures for `COc1cc2[nH]ccc(=O)c2cc1OC` [Compound 6, 6,7-dimethoxy-4(1H)-quinolone]: 10 µM, 35.5 µM and 234 µM.
As for `CCn1ccc(=O)c2c(O)ccc(C)c21` [Compound 61, 1-ethyl-5-hydroxy-8-methyl-4(1H)-quinolone], where the note is “Cavia porcellus”, the EC20 is under 100 µM and the EC50 was found to be 107 µM.
Taken in the same sequence, the figures for `CCn1ccc(=O)c2ccc(C)cc21` [Compound 57, 1-ethyl-7-methyl-4(1H)-quinolone] were under 100 µM and 248 µM.
As to `CC(=O)c1cccc2c(=O)cc[nH]c12` [Compound 44, 8-acetyl-4(1H)-quinolone], where the note is “Cavia porcellus”, the EC20 was under 100 µM, the EC50 was 136 µM and the EC100 worked out at 776 µM.
In the case of `COc1ccc(C)c2c(=O)c(C(=O)N3CCC(c4ccccc4)CC3)c[nH]c12` [Compound 106, 8-methoxy-5-methyl-3-(4-phenylpiperidinyl)carbonyl-4(1H)-quinolone], for the setting “Cavia porcellus”, the EC20 was 102 µM, the EC50 amounted to 245 µM and the EC100 was determined as 447 µM.
Regarding `CCOC(=O)c1ccc2[nH]ccc(=O)c2c1` [Compound 65, 6-ethoxycarbonyl-4(1H)-quinolone], under “Cavia porcellus”, the EC20 was under 100 µM and the EC50 is 345 µM.
In the case of `O=c1cc(C2CC2)[nH]c2ccccc12` [Compound 96, 2-cyclopropyl-4(1H)-quinolone], where the note is “Cavia porcellus”, the EC20 was 123 µM and the EC50 was 374 µM.
Take `CCCCOc1cc2[nH]c(C3CC3)cc(=O)c2cc1OC` [Compound 115, 7-n-butoxy-2-cyclopropyl-6-methoxy-4(1H)-quinolone]: where the note is “Cavia porcellus”, the EC20 amounted to 15.3 µM, the EC50 was 81.3 µM and the EC100 was 202 µM.
The matching figures for `CCOc1cc(OC)cc2c(=O)cc[nH]c12` [Compound 47, 8-ethoxy-6-methoxy-4(1H)-quinolone]: under 100 µM, under 100 µM and 200 µM.
The matching figures for `CCn1cc(C(=O)O)c(=O)c2cc(C)ccc21` [Compound 90, 3-carboxyl-1-ethyl-6-methyl-4(1H)-quinolone]: 181 µM, 345 µM and 394 µM.
As to `CCOC(=O)c1cn(CC)c2c(OC)cc(OCC)cc2c1=O` [Compound 77, 6-ethoxy-3-ethoxycarbonyl-1-ethyl-8-methoxy-4(1H)-quinolone], where the note is “Cavia porcellus”, the EC20 came out at 4.73 µM and the EC50 was 50.1 µM.
In the case of `CCOc1cc2c(=O)cc[nH]c2cc1OC` [Compound 48, 6-ethoxy-7-methoxy-4(1H)-quinolone], where the note is “Cavia porcellus”, the EC20 came out at 12.6 µM, the EC50 was 106 µM and the EC100 came to 646 µM.
For `CCn1ccc(=O)c2cc3c(cc21)OCO3` [Compound 60, 1-ethyl-6,7-methylenedioxy-4(1H)-quinolone], for the setting “Cavia porcellus”, the EC20 was under 100 µM and the EC50 stood at 279 µM.
Consider `C=CCc1cccc2c(=O)cc[nH]c12` [Compound 70, 8-(2-propenyl)-4(1H)-quinolone], for which, for the setting “Cavia porcellus”, the EC20 is under 100 µM and the EC50 worked out at 159 µM.
With `O=c1cc[nH]c2cc(N3CCNCC3)ccc12` [Compound 67, 7-piperazinyl-4(1H)-quinolone], under “Cavia porcellus”, the EC20 came out at 46.8 µM, the EC50 turned out to be 211 µM and the EC100 came out at 944 µM.
On to `CCn1ccc(=S)c2cc3c(cc21)OCO3` [Compound 63], for which, where the note is “Cavia porcellus”, the EC20 turned out to be 42.2 µM and the EC50 amounted to 112 µM.
Taken in the same sequence, the figures for `COCOc1cc2[nH]ccc(=O)c2cc1OC` [Compound 56, 6-methoxy-7-methoxymethoxy-4(1H)-quinolone] were 114 µM and 405 µM.
As to `CCOC(=O)c1c[nH]c2c(OC)cc(OCC)cc2c1=O` [Compound 76, 6-ethoxy-3-ethoxycarbonyl-8-methoxy-4(1H)-quinolone], where the note is “Cavia porcellus”, the EC20 is 38.9 µM, the EC50 was found to be 73.3 µM and the EC100 was found to be 305 µM.
Turning to `CCOC(=O)c1c[nH]c2c(S(=O)(=O)c3ccccc3)cccc2c1=O` [Compound 83, 3-ethoxycarbonyl-8-phenylsulfonyl-4(1H)-quinolone], under “Cavia porcellus”, the EC20 is 19.5 µM and the EC50 was 363 µM.
Take `O=c1cc[nH]c2ccc(CCO)cc12` [Compound 64, 6-(2-hydroxy)ethyl-4(1H)-quinolone]: under “Cavia porcellus”, the EC20 turned out to be 157 µM, the EC50 worked out at 234 µM and the EC100 was determined as 495 µM.
`COCCOc1cc2[nH]ccc(=O)c2cc1OC` [Compound 55, 6-methoxy-7-(2-methoxy)ethoxy-4(1H)-quinolone]: where the note is “Cavia porcellus”, the EC20 was 132 µM and the EC50 is 394 µM.
Take `CCOc1cc2c(=O)c(C(=O)O)cn(CC)c2c(C)c1C` [Compound 88, 3-carboxyl-7,8-dimethyl-6-ethoxy-1-ethyl-4(1H)-quinolone]: for the setting “Cavia porcellus”, the EC20 is under 100 µM, the EC50 amounted to 202 µM and the EC100 turned out to be 856 µM.
Consider `CCn1ccc(=O)c2cc(OC)ccc21` [Compound 73, 1-ethyl-6-methoxy-4(1H)-quinolone], for which, under “Cavia porcellus”, the EC20 was under 100 µM, the EC50 is 115 µM and the EC100 was found to be 241 µM.
The matching figures for `CCOCCOC(=O)c1c[nH]c2c(OC)ccc(OCC)c2c1=O` [Compound 79, 5-ethoxy-3-[(2-ethoxy)ethoxycarbonyl]-8-methoxy-4(1H)-quinolone]: under 100 µM, 135 µM and 680 µM.
Consider `C/C=C/Cc1c(O)c(OC)cc2c(=O)cc[nH]c12` [Compound 72, 8-(2-trans-butenyl)-7-hydroxy-6-methoxy-4(1H)-quinolone], for which the “EC20 (molar concentration for enhancing the left atrial muscle contracting force to the level of 20%)” value came out at 35.5 µM, the “EC100 (molar concentration for enhancing the left atrial muscle contracting force to the level of 100%)” value was determined as 211 µM and the EC50 was 63.1 µM.
With `CCOc1ccc2c(c1)c(=O)ccn2CC` [Compound 74, 6-ethoxy-1-ethyl-4(1H)-quinolone], for the setting “Cavia porcellus”, the EC20 is under 100 µM, the EC50 turned out to be 108 µM and the EC100 stood at 546 µM.

For the origin of these results see US5081121A, “4(1H)-quinolone derivatives” (priority 1988, dated 1992).
